Activity calls are given as the source filed them. The calls are words filed in the database; no cut-off is given here.
Columns and labels:
[1] = target: T1, Peroxisome proliferator-activated receptor gamma (Mus musculus) (UniProt P37238); assay: Partial agonist activity at mouse PPARgamma expressed in CV-1 cells by reporter gene assay relative to rosiglitazone; assay type: cell-based
T1 sequence (whole entry): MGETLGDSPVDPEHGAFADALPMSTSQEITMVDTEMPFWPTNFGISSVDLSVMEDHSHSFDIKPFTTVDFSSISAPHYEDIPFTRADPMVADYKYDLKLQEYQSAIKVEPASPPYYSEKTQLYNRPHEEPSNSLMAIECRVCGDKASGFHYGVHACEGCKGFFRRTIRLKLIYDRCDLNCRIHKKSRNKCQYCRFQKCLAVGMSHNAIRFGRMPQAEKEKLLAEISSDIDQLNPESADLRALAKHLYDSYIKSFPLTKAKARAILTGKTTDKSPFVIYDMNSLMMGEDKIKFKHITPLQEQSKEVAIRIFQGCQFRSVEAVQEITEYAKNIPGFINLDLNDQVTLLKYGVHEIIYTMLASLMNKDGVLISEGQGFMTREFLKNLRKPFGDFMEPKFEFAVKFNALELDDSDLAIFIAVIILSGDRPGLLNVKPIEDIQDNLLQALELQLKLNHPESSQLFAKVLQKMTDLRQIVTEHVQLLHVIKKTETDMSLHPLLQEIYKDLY

[2] = target: T2, Peroxisome proliferator-activated receptor gamma (Mus musculus, UniProt P37238); assay: Partial agonist activity at mouse PPARgamma expressed in CV-1 cells by reporter gene assay; assay type: cell-based
T2 sequence (P37238 whole entry): T1 sequence (whole entry)

[3] = target: T3, Peroxisome proliferator-activated receptor gamma (Homo sapiens) (UniProt P37231); assay: Partial agonist activity at human PPARgamma expressed in CV-1 cells by reporter gene assay relative to rosiglitazone; assay type: cell-based
T3 sequence (whole entry): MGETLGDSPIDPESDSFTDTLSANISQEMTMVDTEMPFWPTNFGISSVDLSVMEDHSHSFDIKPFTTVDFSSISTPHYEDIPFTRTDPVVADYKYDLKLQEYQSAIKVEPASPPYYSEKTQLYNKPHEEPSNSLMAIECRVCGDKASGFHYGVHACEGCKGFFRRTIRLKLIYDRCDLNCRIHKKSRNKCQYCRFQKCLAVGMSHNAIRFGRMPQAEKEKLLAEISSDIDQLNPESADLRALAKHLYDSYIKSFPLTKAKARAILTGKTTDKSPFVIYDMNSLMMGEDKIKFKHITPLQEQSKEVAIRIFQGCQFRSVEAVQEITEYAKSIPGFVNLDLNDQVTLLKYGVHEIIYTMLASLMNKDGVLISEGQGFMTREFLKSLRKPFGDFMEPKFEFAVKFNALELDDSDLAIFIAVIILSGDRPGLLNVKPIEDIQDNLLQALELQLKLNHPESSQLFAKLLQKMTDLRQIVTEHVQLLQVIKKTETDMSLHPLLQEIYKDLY

[4] = target: T4, Peroxisome proliferator-activated receptor gamma (Homo sapiens, UniProt P37231); assay: Partial agonist activity at human PPARgamma expressed in CV-1 cells by reporter gene assay; assay type: cell-based
T4 sequence (P37231 whole entry): T3 sequence (whole entry)

[5] = target: T5, Peroxisome proliferator-activated receptor delta (Mus musculus, UniProt P35396); assay: Agonist activity at mouse PPARdelta expressed in CV-1 cells by reporter gene assay; assay type: cell-based
T5 sequence (P35396 whole entry): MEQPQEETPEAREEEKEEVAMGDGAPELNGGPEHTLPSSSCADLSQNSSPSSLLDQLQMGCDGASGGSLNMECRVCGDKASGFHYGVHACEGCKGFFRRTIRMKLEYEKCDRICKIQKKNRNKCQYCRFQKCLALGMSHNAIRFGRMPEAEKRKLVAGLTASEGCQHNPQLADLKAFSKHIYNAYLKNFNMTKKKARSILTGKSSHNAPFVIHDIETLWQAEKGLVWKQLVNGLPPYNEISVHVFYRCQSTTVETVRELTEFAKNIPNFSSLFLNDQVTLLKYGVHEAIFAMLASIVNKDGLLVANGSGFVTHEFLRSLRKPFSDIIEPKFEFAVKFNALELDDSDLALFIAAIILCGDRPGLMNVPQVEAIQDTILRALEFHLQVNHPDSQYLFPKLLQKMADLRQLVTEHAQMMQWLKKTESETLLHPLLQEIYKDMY

[6] = target: T6, Peroxisome proliferator-activated receptor alpha (Mus musculus, UniProt P23204); assay: Agonist activity at mouse PPARalpha expressed in CV-1 cells by reporter gene assay; assay type: cell-based
T6 sequence (P23204 whole entry): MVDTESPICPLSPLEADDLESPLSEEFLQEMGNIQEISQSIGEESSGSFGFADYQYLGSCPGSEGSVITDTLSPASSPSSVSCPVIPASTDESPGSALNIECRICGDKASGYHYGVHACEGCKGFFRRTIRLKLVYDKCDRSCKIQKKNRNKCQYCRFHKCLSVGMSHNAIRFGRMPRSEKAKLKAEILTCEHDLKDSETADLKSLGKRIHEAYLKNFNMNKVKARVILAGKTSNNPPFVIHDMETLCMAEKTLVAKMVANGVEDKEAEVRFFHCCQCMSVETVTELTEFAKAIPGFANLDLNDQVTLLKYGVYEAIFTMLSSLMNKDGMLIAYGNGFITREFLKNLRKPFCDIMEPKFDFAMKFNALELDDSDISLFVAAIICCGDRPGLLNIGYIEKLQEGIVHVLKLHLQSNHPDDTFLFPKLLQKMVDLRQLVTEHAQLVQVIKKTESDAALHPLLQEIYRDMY

[7] = target: T7, Type-1 angiotensin II receptor (Homo sapiens, UniProt P30556); assay: Antagonist activity at human AT1 receptor expressed in CHO cells measured after overnight incubation by luciferase reporter gene assay; assay type: cell-based
T7 sequence (P30556 whole entry): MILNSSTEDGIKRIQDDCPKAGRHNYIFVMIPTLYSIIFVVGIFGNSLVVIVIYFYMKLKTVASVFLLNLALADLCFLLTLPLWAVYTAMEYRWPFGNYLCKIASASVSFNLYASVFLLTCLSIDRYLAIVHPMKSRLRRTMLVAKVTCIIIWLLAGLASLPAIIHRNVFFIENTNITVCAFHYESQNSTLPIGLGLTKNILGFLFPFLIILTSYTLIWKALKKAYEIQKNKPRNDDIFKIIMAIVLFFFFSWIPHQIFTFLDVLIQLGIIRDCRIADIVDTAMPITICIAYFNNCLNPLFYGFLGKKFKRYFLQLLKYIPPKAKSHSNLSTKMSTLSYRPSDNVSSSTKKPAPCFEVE

[8] = target: T2, Peroxisome proliferator-activated receptor gamma; assay: Agonist activity at mouse PPARgamma expressed in CV-1 cells by reporter gene assay; assay type: cell-based
[9] = target: T4, Peroxisome proliferator-activated receptor gamma; assay: Agonist activity at human PPARgamma expressed in CV-1 cells by reporter gene assay; assay type: cell-based
Rattus norvegicus [10] = assay: Reduction in triglyceride level in Zucker fa/fa rat plasma at 75 mg/kg, po qd for 5 days relative to vehicle-treated control control; assay type: functional, organism-based; design: dose 75 mg/kg
Rattus norvegicus [11] = assay: Reduction in insulin level in Zucker fa/fa rat plasma at 75 mg/kg, po qd for 5 days relative to vehicle-treated control control; assay type: functional, organism-based; design: dose 75 mg/kg
Rattus norvegicus [12] = assay: Reduction in free fatty acid level in Zucker fa/fa rat plasma at 75 mg/kg, po qd for 5 days relative to vehicle-treated control control; assay type: functional, organism-based; design: dose 75 mg/kg
Rattus norvegicus [13] = assay: Antihypertensive activity in dosed SHR NCrl rat assessed as decrease in diastolic blood pressure at 10 mg/kg, po administered daily for 12 days relative to vehicle-treated control control; assay type: functional, organism-based; design: dose 10 mg/kg; details: Artery
Rattus norvegicus [14] = assay: Antihypertensive activity in dosed SHR NCrl rat assessed as decrease in diastolic blood pressure at 10 mg/kg, po administered daily for 12 days relative to baseline control; assay type: functional, organism-based; design: dose 10 mg/kg; details: Artery
Rattus norvegicus [15] = assay: Antihypertensive activity in dosed SHR NCrl rat assessed as decrease in systolic blood pressure at 10 mg/kg, po administered daily for 12 days relative to vehicle-treated control control; assay type: functional, organism-based; design: dose 10 mg/kg; details: Artery
Rattus norvegicus [16] = assay: Antihypertensive activity in dosed SHR NCrl rat assessed as decrease in systolic blood pressure at 10 mg/kg, po administered daily for 12 days relative to baseline control; assay type: functional, organism-based; design: dose 10 mg/kg; details: Artery
[17] = Oral bioavailability in Zucker fa/fa rat at 30 mg/kg; assay type: ADME, organism-based; details: in vivo
[18] = AUC in Zucker fa/fa rat at 30 mg/kg, po; assay type: ADME, organism-based; design: dose 30 mg/kg, route oral; details: plasma
[19] = Clearance in Zucker fa/fa rat at 5.2 mg/kg, iv; assay type: ADME, organism-based; design: dose 5.2 mg/kg, route intravenous; details: in vivo
[20] = Volume of distribution at steady state in Zucker fa/fa rat 5.2 mg/kg, iv; assay type: ADME, organism-based; design: dose 5.2 mg/kg, route intravenous; details: in vivo, read-out: Vdss
[21] = Half life in Zucker fa/fa rat at 5.2 mg/kg, iv; assay type: ADME, organism-based; design: dose 5.2 mg/kg, route intravenous; details: in vivo
[22] = AUC in Zucker fa/fa rat at 5.2 mg/kg, iv; assay type: ADME, organism-based; design: dose 5.2 mg/kg, route intravenous; details: plasma
[23] = target: T1, Peroxisome proliferator-activated receptor gamma (Mus musculus); assay: Agonist activity at mouse PPARgamma expressed in CV-1 cells by reporter gene assay relative to rosiglitazone; assay type: cell-based
Rattus norvegicus [24] = assay: Toxicity in Zucker fa/fa rat assessed as increase in body weight gain at 75 mg/kg, po qd for 5 days relative to vehicle-treated control control; assay type: organism-based; design: dose 75 mg/kg, route oral; details: in vivo, 120 h
Rattus norvegicus [25] = assay: Reduction in triglyceride level in Zucker fa/fa rat plasma at 1 mg/kg, po qd for 5 days relative to vehicle-treated control control; assay type: functional, organism-based; design: dose 1 mg/kg
Rattus norvegicus [26] = assay: Toxicity in Zucker fa/fa rat assessed as increase in body weight gain at 1 mg/kg, po qd for 5 days relative to vehicle-treated control control; assay type: organism-based; design: dose 1 mg/kg, route oral; details: in vivo, 120 h
Rattus norvegicus [27] = assay: Reduction in insulin level in Zucker fa/fa rat plasma at 1 mg/kg, po qd for 5 days relative to vehicle-treated control control; assay type: functional, organism-based; design: dose 1 mg/kg
Rattus norvegicus [28] = assay: Reduction in free fatty acid level in Zucker fa/fa rat plasma at 1 mg/kg, po qd for 5 days relative to vehicle-treated control control; assay type: functional, organism-based; design: dose 1 mg/kg
[29] = target: T8, Peroxisome proliferator-activated receptor alpha (Mus musculus) (UniProt P23204); assay: Agonist activity at mouse PPARalpha expressed in CV-1 cells by reporter gene assay relative to rosiglitazone
T8 sequence (whole entry): T6 sequence (P23204 whole entry)

EC50 [5] [nM]	EC50 [6] [nM]	IC50 [7] [nM]	EC50 [8] [nM]	EC50 [9] [nM]	max activation [23] [%]	Compound	further results
> 10000	> 10000	1000				CCCn1nc2ccc(C(=O)NC(CC)c3ccccc3)cc2c1Cc1ccc(-c2ccccc2C(=O)O)cc1 (centres undefined)	max activation [1]: 19%; EC50 [2]: 250 nM; max activation [3]: 24%; EC50 [4]: 130 nM
> 10000	> 10000	23	130	80		CCCc1nn2ccc(-c3nc4ccccc4n3CCC)cc2c1Cc1ccc(-c2ccccc2-c2nnn[nH]2)cc1	
> 10000	> 10000	6				CCCCn1c(-c2ccc3nn(CCC)c(Cc4ccc(-c5ccccc5-c5nn[nH]n5)cc4)c3c2)nc2ccccc21	Activity (Rattus norvegicus [10]): Active; Activity (Rattus norvegicus [11]): Active; Activity (Rattus norvegicus [12]): Active; Activity (Rattus norvegicus [13]): Active; Activity (Rattus norvegicus [14]): Active; Activity (Rattus norvegicus [15]): Active; Activity (Rattus norvegicus [16]): Active; bioavailability [17]: 78%; AUC [18]: 36300 ng·h/mL; clearance [19]: 11 mL/min/kg; Vd [20]: 7.8 L/kg; half-life [21]: 14 h; AUC [22]: 8010 ng·h/mL; max activation [1]: 18%; EC50 [2]: 270 nM; max activation [3]: 40%; EC50 [4]: 250 nM
> 10000	> 10000	1690	1020	390	32	CCCc1nn2ccc(C(=O)NC(CC)c3ccccc3)cc2c1Cc1ccc(-c2ccccc2C(=O)O)cc1 (centres undefined)	
						CN(CCOc1ccc(C[C@H](Nc2ccccc2C(=O)c2ccccc2)C(=O)O)cc1)c1ccccn1	Activity (Rattus norvegicus [24]): Non-toxic; Activity (Rattus norvegicus [25]): Active; Activity (Rattus norvegicus [26]): Toxic; Activity (Rattus norvegicus [27]): Active; Activity (Rattus norvegicus [28]): Active
		288				CCCc1nc2ccc(C(=O)NC(CC)c3ccccc3)cc2n1Cc1ccc(-c2ccccc2C(=O)O)cc1 (centres undefined)	
		> 10000				CCC(NC(=O)c1ccc2c(c1)c(C)c(C)n2Cc1ccc(-c2ccccc2C(=O)O)cc1)c1ccccc1 (centres undefined)	
		128		2650		CCCc1nc2cc(C(=O)NC(CC)c3ccccc3)ccc2n1Cc1ccc(-c2ccccc2C(=O)O)cc1 (centres undefined)	
					60	CCCc1nn2ccc(-c3nc4ccccc4n3CCC)cc2c1Cc1ccc(-c2ccccc2-c2nn[nH]n2)cc1	
					9	CCCc1nn2ccc(C(=O)NC(CC)c3ccccc3)cc2c1Cc1ccc(-c2ccccc2-c2nn[nH]n2)cc1 (centres undefined)	
> 10000	> 10000	85	380	280	27	CCCc1nn2ccc(-c3nc4ccccc4n3CCC)cc2c1Cc1ccc(-c2ccccc2C(=O)O)cc1	
	170	> 10000	3	2	42	CCCc1c(Cc2ccc(-c3ccccc3C(=O)O)cc2)c2ccc(C(=O)NC(CC)c3ccccc3)cc2n1C (centres undefined)	max activation [29]: 90%
> 10000	> 10000	> 10000	200	90	17	CCCc1c(Cc2ccc(-c3ccccc3C(=O)O)cc2)c2cc(C(=O)NC(CC)c3ccccc3)ccc2n1OC (centres undefined)	
	790	> 10000	9	6	36	CCCc1[nH]c2cc(C(=O)NC(CC)c3ccccc3)ccc2c1Cc1ccc(-c2ccccc2C(=O)O)cc1 (centres undefined)	max activation [29]: 71%
> 10000	> 10000	60	1390	640	37	CCCCn1c(-c2ccc3nn(CCC)c(Cc4ccc(-c5ccccc5C(=O)O)cc4)c3c2)nc2ccccc21	
	> 10000	> 10000	510	350	24	CCCc1[nH]c2ccc(C(=O)NC(CC)c3ccccc3)cc2c1Cc1ccc(-c2ccccc2C(=O)O)cc1 (centres undefined)	

Source: ChEMBL document CHEMBL3112505, “Discovery of novel indazole derivatives as dual angiotensin II antagonists and partial PPARγ agonists” (Bioorg Med Chem Lett, 2014)
